Results from patent US7208162B2, “Combination therapy of respiratory diseases using antibodies and anti-inflammatory agents” (priority 2000, dated 2007).

Columns and labels:
[1] = test system: Respiratory Syncytial Virus; conditions: systemically administered; 147 infants; cited from earlier work
RSV [2] = conditions: aerosol inhalation; versus untreated patients; cited from earlier work
[3] = cited from earlier work
[4] = test system: respiratory syncytial virus (RSV/Long); assay: Example 3: different steroids with the same antibody in RSV pneumonia, arithmetic mean pathology scores; type: in vivo; conditions: 8 mg/kg/day i.p. days 3-5 plus antibody 15 mg/kg day 3; day 6
Procedure: The following procedure was performed using inbred cotton rats (Sigmodon hispidus). On day 0, young adult cotton rats were divided into 8 groups of 4 animals each (total: 32 animals). Identification of each group in terms of treatment was as follows:
In each case (Groups B–H), approximately 10^6.5 plaque forming units (pfu) of respiratory syncytial virus (RSV/Long) was administered intranasally in a volume of 100 μl.
(§1) On day 3, treatment began as described above for each of the groups. The animals were each weighed and treated according to the indicated regimen. Antibody was palivizumab wherein 15 mg/kg was the dose used in each case. All dosages are given as mg per kg of body weight.
On day 4, animals in groups D through H were treated as described for day 3 but no additional antibody was given.
On day 5, animals in groups D through H were treated as on […] (again with no additional antibody).
On day 6, all animals were sacrificed. Lungs from all of the animals were inflated with formalin for histological examination.

[5] = test system: respiratory syncytial virus (RSV/Long); assay: Example 1: antibody/triamcinolone therapy of RSV-infected cotton rats (virus titer, pulmonary pathology); type: in vivo; conditions: treatment i.m. beginning 3 days post-infection; antibody 15 mg/kg, triamcinolone 1-16 mg/kg; lungs days 4 and 6
Procedure: The following procedure was performed using inbred cotton rats (Sigmodon hispidus). On day 0, young adult cotton rats were divided into 9 groups of 12 animals each (total: 108 animals). Identification of each group in terms of treatment was as follows:
In each case (Groups B–I), approximately 10^6.5 plaque forming units (pfu) of respiratory syncytial virus (RSV/Long) was administered intranasally in a volume of 100 μl.
as §1, with “regimen. All antibody and steroid administration was intramuscular (i.e., systemic) and both antibody and steroid were administered together.” for “regimen.”
On day 4, six animals from each group were sacrificed, their lungs bisected, with half being homogenized for viral quantitation and the other half being inflated with formalin for histological examination. The remaining six animals in each of groups D through I were treated with the dose of triamcinolone indicated above but no additional antibody was given.
On day 5, the remaining six animals in each group were treated again as described for day 4 (again with no additional antibody).
On day 6, the remaining 6 animals from each group were sacrificed and data collected as described for day 4. Thus, their lungs were bisected, with half being homogenized for viral quantitation and the other half being inflated with formalin for histological examination.
Results of these experiments are shown graphically in FIGS. 2(a through e).
This experiment was duplicated on a separate population of 108 cotton rats divided into groups and treated as just described with similar results reported in FIG. 3 (FIG. 3(a) showing virus titer and FIG. 3(b) showing composite pathology score). The conclusions herein are the result of data from both experiments. The results for composite pathology scores are shown in FIG. 1 reflecting the results of both sets of experiments.

RSV [6] = assay: Example 5: lung pathology score (0 to 100) on day 6 after MAb and glucocorticoid therapy; type: in vivo, cotton rats
Procedure: Twenty eight (28) cotton rats (CRs) were infected intranasally with 6.5 logs of RSV (as 0.1 ml of inoculum), leading to dramatic lung pathology 6 days post-infection (PI). On day 3 PI (the peak for viral infection), 7 groups of 4 animals received one of the following: no therapy, or intramuscular (i.m.) MAb (15 mg/kg) (MAb=palivizumab) i.m. triamcinolone (TRI;Steris Laboratories, Phoenix, Ariz.) at 16 mg/kg and MAb; i.p. methylprednisolone (MED; Solu-Medrol® Pharmacia and Upjohn, Kalamazoo, Mich.) 4 mg/kg and MAb; i.p. MED at 8 mg/kg and MAb; i.p. dexamethasone (DEX; Elkins-Sinn, Cherry Hill, N.J.) 0.6 mg/kg and MAb; or i.p. DEX 1.2 mg/kg and MAb (TRI and DEX once daily, MED divided into every 6 hours). All glucocorticoids were repeated on days 4 and 5. The dose, frequency and route of administration of dexamethasone and methylprednisolone were extrapolated from human use recommendations.
On day 6, all groups (including 4 uninfected CRs were sacrificed (in general by carbon dioxide asphyxiation). For pathology, tissues were inflated and formalin fixed and coronal paraffin sections were cut at 4 μm thickness. Lung tissue slides scored on a 0 (normal) to 100 (marked pathology) severity scale, for bronchiolitis, alveolitis, and interstitial pneumonia.
Results are shown graphically in FIG. 7A and summarized as follows in terms of pathology score (0 to 100).

[7] = MAb 15 mg/kg i.m. day 3, TRI 16 mg/kg i.m. days 3-5

C[C@]12C=CC(=O)C=C1CC[C@@H]1[C@@H]2[C@@H](O)C[C@@]2(C)[C@H]1CC[C@]2(O)C(=O)CO [prednisolone]
effectiveness in infant RSV [1]: ineffectiveness

NC(=O)c1ncn([C@@H]2O[C@H](CO)[C@@H](O)[C@H]2O)n1 [ribavirin]
level of secondary infection following cessation of treatment (RSV [2]): significantly higher than in untreated patients
bioavailability ([3]; given orally): about 45%
time of peak concentrations in plasma ([3]; in vivo, po): 1 to 2 h

C[C@H]1C[C@@H]2[C@H]([C@@H](O)C[C@@]3(C)[C@H]2CC[C@]3(O)C(=O)COC(=O)CCC(=O)[O-])[C@@]2(C)C=CC(=O)C=C12.[Na+] [solumedrol]
pulmonary pathology (arithmetic mean pathology scores) compared with triamcinolone [4]: worked almost as well as triamcinolone

C[C@]12C=CC(=O)C=C1CC[C@H]1[C@@H]3C[C@@H](O)[C@](O)(C(=O)CO)[C@@]3(C)C[C@H](O)[C@@]12F [triamcinolone]
pulmonary pathology [5]: positive effect on pulmonary pathology
viral clearance (RSV titer in lungs) [5]: retarded viral clearance

palivizumab: anti-RSV IgG monoclonal antibody, commercially palivizumab, sequence described as Medi-493 (U.S. Pat. No. 5,824,307 FIGS. 7 and 8)
pathology (summary of Table 1) (RSV [6]): did not reduce pathology
Alveolitis pathology score (0 to 100) (RSV [6]; [7]): 38
Bronchiolitis pathology score (0 to 100) (RSV [6]; [7]): 75
Interstitial Pneumonia pathology score (0 to 100) (RSV [6]; [7]): 49
lung tissue histology (inflammatory infiltrates) (RSV [6]; palivizumab day 3, methylprednisolone days 3, 4 and 5, hematoxylin and eosin, 64X): Little or no improvement
pulmonary pathology [5]: no significant effect on pulmonary pathology
viral clearance (RSV titer in lungs) [5]: accelerated viral clearance
